Reference: patent US12503438B2, “Compounds for the treatment of kinase-dependent disorders” (Exelixis, Inc., priority 2019, dated 2025)

Assays:
Human Mer = biological target: T1, Human Mer (Homo sapiens, UniProt Q12866); experiment: Human Mer kinase assay (33P-phosphoryl transfer radiometric, KinaseProfiler); conditions: biochemical activity; 10 μM ATP
T1 construct: Human Mer (residues R557-E882 with H628Q and R794A, 0.7 nM); purchased Eurofins Pharma Discovery Services UK Limited (KinaseProfiler service)
T1 sequence (Q12866 557-882 limits assumed): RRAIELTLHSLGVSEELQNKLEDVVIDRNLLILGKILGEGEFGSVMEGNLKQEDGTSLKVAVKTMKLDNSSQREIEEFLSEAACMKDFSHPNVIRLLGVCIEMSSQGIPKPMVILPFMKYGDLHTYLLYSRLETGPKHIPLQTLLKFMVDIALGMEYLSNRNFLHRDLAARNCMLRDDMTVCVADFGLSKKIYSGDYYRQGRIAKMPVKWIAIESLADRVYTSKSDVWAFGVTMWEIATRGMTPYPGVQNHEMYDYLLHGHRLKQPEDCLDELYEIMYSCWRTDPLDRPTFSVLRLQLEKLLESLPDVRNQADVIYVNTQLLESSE
Method: (§1) Kinase activity and compound inhibition were investigated using the ^33P-Phosphoryl transfer radiometric kinase assay, performed using the KinaseProfiler™ service of Eurofins Pharma Discovery Services UK Limited. Dose-response experiments were performed using nine compound concentrations in a 96-well microtiter plate. For each assay, all compounds were prepared to a 50× final assay concentration (50 μM) in 100% DMSO, then diluted in a half-log series, with the final top concentration at 1 μM. This working stock of the compound was added to the assay well as the first component in the reaction, followed by the remaining components as detailed in the following assay protocols below. The positive control wells (100% kinase activity) contain all components of the reaction including 2% DMSO (control for solvent effects), except the compound of interest. Blank wells contain all components of the reaction, with the reference inhibitor, staurosporine. This reference compound was used to abolish kinase activity and generated the 0% kinase activity base-line. IC50 values were calculated by nonlinear regression analysis using the sigmoidal dose-response (variable slope) curve fit on XLFit version 5.3 (ID Business Solutions).
Human Mer (residues R557-E882 with H628Q and R794A, 0.7 nM) was incubated with 8 mM MOPS pH 7.0, 0.2 mM EDTA, 30 mM NaCl, 250 μM GGMEDIYFEFMGGKKK, 10 mM magnesium acetate and 10 μM [y-^33P-ATP]. The reaction was initiated by the addition of the Mg/ATP mix. After incubation for 40 minutes at room temperature, the reaction was stopped by the addition of phosphoric acid to a concentration of 0.5%. A reaction aliquot of 10 μL was then spotted onto a P30 filtermat and washed four times for 4 minutes in 0.425% phosphoric acid and once in methanol prior to drying and scintillation counting. Incorporated ^33P was measured using the Wallac Microbeta scintillation counter (Perkin Elmer).

Met [1] = biological target: T2, Met (Homo sapiens, UniProt P08581); experiment: Met autophosphorylation ELISA in PC-3 cells; type: cell-based; set-up: endogenous in cells; host or cells: PC-3 prostate cancer cells (ATCC #CRL-1435); conditions: cellular activity, HGF-stimulated, phospho-Met ELISA, read-out: c-Met IC50
Method: PC-3 prostate cancer cells (ATCC #CRL-1435) were seeded at 4×10^4 cells/well onto 24-well plates (Greiner #662165), in DMEM (Thermo Fisher #11995-040) containing 10% FBS (Thermo Fisher #26140-079), 1% MEM NEAA (Thermo Fisher #11140-050), 1% GlutaMax (Thermo Fisher #35050-061), and 1% Penicillin Streptomycin (Thermo Fisher #15140-122). PC-3 cells were incubated at 37° C., 5% CO2 for 24 h and then starved for 3 h in serum-free medium. Test compounds were serially diluted to produce an 8-point dose curve in fresh serum-free medium to a final concentration of 0.3% DMSO (vehicle) and added to the cells and incubated for 1 h. Cells were then stimulated with 100 ng/mL recombinant human HGF (R&D Systems #294-HG-250) for 10 min, washed with cold PBS and immediately lysed with 130 μL of cold 1× lysis buffer [20 mM Tris, 137 mM sodium chloride, 2 mM EDTA, 10% glycerol, 1% NP-40 alternative, 1 mM activated sodium orthovanadate, 1 mM PefaBloc SC (Sigma-Aldrich #11429868001), protease/phosphatase inhibitor tablet (Thermo Fisher #A32959)]. Lysates were clarified by centrifugation and 100 μL/well added into the PathScan phospho-Met (panTyr) Sandwich ELISA (Cell Signaling Technology #7333). Assay was performed according to manufacturer's instructions. Positive control wells (100% activity) contained HGF-stimulated, DMSO-treated cell lysates. Negative control wells (0% activity) contained HGF-stimulated, reference inhibitor-treated cell lysates. IC50 values were calculated by nonlinear regression analysis using a 4-parameter logistic curve fit in ActivityBase XE (IDBS).
Target sequence in this assay (P08581 25-1390): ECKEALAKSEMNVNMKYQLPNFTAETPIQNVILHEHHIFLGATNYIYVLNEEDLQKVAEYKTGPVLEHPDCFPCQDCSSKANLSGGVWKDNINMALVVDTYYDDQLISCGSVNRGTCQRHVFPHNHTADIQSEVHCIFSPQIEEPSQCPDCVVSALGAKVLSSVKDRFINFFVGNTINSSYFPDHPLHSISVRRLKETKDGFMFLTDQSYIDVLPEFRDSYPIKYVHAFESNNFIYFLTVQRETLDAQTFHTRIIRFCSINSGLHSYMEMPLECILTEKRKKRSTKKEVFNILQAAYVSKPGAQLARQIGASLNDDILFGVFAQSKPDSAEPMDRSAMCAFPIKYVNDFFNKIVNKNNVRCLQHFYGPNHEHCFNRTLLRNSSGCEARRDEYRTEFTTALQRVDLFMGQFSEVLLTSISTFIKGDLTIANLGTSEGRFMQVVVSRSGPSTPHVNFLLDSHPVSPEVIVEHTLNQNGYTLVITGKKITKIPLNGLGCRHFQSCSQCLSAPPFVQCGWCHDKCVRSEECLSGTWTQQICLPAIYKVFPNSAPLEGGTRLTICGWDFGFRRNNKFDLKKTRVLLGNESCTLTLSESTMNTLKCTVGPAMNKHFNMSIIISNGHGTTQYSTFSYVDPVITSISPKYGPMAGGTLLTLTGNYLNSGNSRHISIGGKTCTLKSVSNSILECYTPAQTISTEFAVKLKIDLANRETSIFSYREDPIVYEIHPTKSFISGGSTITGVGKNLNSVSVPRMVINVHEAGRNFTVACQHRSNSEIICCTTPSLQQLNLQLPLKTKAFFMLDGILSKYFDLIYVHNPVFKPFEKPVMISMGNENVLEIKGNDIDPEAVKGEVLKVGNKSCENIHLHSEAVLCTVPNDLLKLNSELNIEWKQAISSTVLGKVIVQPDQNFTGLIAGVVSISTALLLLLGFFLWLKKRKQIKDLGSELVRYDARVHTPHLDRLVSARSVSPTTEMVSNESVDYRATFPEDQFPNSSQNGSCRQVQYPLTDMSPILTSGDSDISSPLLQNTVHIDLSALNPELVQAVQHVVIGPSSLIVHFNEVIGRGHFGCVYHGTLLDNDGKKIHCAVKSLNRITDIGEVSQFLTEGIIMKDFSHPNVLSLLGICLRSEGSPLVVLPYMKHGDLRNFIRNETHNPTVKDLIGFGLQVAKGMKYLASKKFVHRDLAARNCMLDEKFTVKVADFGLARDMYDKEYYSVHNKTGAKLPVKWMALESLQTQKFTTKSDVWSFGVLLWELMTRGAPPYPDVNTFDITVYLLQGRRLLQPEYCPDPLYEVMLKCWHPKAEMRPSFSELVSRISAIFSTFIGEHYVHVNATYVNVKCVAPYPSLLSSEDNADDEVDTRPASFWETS

Met [2] = biological target: T2, Met; experiment: Human Met kinase assay (33P-phosphoryl transfer radiometric, KinaseProfiler); set-up: Human Met (residues R974-S1390 with A1209G and V1290L, 3.4 nM); purchased Eurofins Pharma Discovery Services UK Limited (KinaseProfiler service); conditions: biochemical activity; 10 μM ATP; read-out: c-Met IC50
Method: as §1
Target sequence in this assay (P08581 974-1390): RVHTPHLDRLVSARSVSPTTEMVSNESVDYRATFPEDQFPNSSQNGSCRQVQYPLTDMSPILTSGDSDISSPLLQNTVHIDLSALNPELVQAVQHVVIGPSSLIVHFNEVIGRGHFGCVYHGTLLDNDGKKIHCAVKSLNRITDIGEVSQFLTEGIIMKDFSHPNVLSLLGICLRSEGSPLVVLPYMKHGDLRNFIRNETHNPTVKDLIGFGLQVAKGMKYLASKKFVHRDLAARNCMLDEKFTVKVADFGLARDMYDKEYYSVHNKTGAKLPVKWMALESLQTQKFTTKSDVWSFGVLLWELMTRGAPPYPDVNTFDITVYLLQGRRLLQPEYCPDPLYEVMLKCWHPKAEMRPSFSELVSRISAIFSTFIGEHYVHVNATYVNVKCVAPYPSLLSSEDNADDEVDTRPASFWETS
Human Met (residues R974-S1390 with A1209G and V1290L, 3.4 nM) was incubated with 8 mM MOPS pH 7.0, 0.2 mM EDTA, 250 μM KKKGQEEEYVFIE, 1 mM sodium orthovanadate, 5 mM […], 10 mM magnesium acetate, and 10 μM [γ-^33P-ATP]. The reaction was initiated by the addition of the Mg/ATP mix. After incubation for 40 minutes at room temperature, the reaction was stopped by the addition of phosphoric acid to a concentration of 0.5%. A reaction aliquot of 10 μL was then spotted onto a P30 filtermat and washed four times for 4 minutes in 0.425% phosphoric acid and once in methanol prior to drying and scintillation counting. Incorporated ^33P was measured using the Wallac Microbeta scintillation counter (Perkin Elmer).

SMILES | IC50 (Human Mer) [nM] | IC50 (Met [1]) [nM] | IC50 (Met [2]) [nM]
COCCn1cc(-c2ccc3c(Oc4ccc(NC(=O)C5(C(=O)Nc6ccc(F)cc6)CC5)cc4)ccnc3c2)cn1 [Compound 10, 1-N′-(4-Fluorophenyl)-1-N-[4-[7-[1-(2-methoxyethyl)pyrazol-4-yl]quinolin-4-yl]oxyphenyl]cyclopropane-1,1-dicarboxamide] | ≤ 10 | 10 to 100 | 10 to 100
Cn1cc(-c2ccc3c(Oc4ccc(NC(=O)C5(C(=O)Nc6ccc(F)cc6)CC5)cc4)ccnc3c2)cn1 [Compound 11, 1-N′-(4-Fluorophenyl)-1-N-[4-[7-(1-methylpyrazol-4-yl)quinolin-4-yl]oxyphenyl]cyclopropane-1,1-dicarboxamide] | ≤ 10 | ≤ 10 | ≤ 10
O=C(Nc1ccc(F)cc1)C1(C(=O)Nc2ccc(Oc3ccnc4cc(-c5cnn(C(F)(F)F)c5)ccc34)cc2)CC1 [Compound 12, 1-N′-(4-Fluorophenyl)-1-N-[4-[7-[1-(trifluoromethyl)pyrazol-4-yl]quinolin-4-yl]oxyphenyl]cyclopropane-1,1-dicarboxamide] | ≤ 10 | 10 to 100 | 10 to 100
O=C(Nc1ccc(F)cc1)C1(C(=O)Nc2ccc(Oc3ccnc4cc(-c5cnn(C(F)F)c5)ccc34)cc2)CC1 [Compound 13, 1-N-[4-[7-[1-(Difluoromethyl)pyrazol-4-yl]quinolin-4-yl]oxyphenyl]-1-N′-(4-fluorophenyl)cyclopropane-1,1-dicarboxamide] | ≤ 10 | 10 to 100 | ≤ 10
O=C(Nc1ccc(F)cc1)C1(C(=O)Nc2ccc(Oc3ccnc4cc(-c5cnn(CCF)c5)ccc34)cc2)CC1 [Compound 14, 1-N-[4-[7-[1-(2-Fluoroethyl)pyrazol-4-yl]quinolin-4-yl]oxyphenyl]-1-N′-(4-fluorophenyl)cyclopropane-1,1-dicarboxamide] | ≤ 10 | ≤ 10 | ≤ 10
O=C(Nc1ccc(F)cc1)C1(C(=O)Nc2ccc(Oc3ccnc4cc(-c5cnn(CC(F)F)c5)ccc34)cc2)CC1 [Compound 15, 1-N-[4-[7-[1-(2,2-Difluoroethyl)pyrazol-4-yl]quinolin-4-yl]oxyphenyl]-1-N′-(4-fluorophenyl)cyclopropane-1,1-dicarboxamide] | ≤ 10 | 10 to 100 | ≤ 10
O=C(Nc1ccc(F)cc1)C1(C(=O)Nc2ccc(Oc3ccnc4cc(-c5ccncn5)ccc34)cc2)CC1 [Compound 114, 1-N′-(4-Fluorophenyl)-1-N-[4-(7-pyrimidin-4-ylquinolin-4-yl)oxyphenyl]cyclopropane-1,1-dicarboxamide] |  | 10 to 100 | 
O=C(Nc1ccc(F)cc1)C1(C(=O)Nc2cc(F)c(Oc3ccnc4cc(-c5cccnc5)ccc34)cc2F)CC1 [Compound 115, 1-N′-[2,5-Difluoro-4-(7-pyridin-3-ylquinolin-4-yl)oxyphenyl]-1-N-(4-fluorophenyl)cyclopropane-1,1-dicarboxamide] |  | 10 to 100 | 
O=C(Nc1ccc(F)cc1)C1(C(=O)Nc2ccc(Oc3ccnc4cc(-c5cncs5)ccc34)cc2)CC1 [Compound 116, 1-N′-(4-Fluorophenyl)-1-N-[4-[7-(1,3-thiazol-5-yl)quinolin-4-yl]oxyphenyl]cyclopropane-1,1-dicarboxamide] |  | 10 to 100 | 
Cn1ccc(-c2ccc3c(Oc4ccc(NC(=O)C5(C(=O)Nc6ccc(F)cc6)CC5)cc4)ccnc3c2)cc1=O [Compound 117, 1-N′-(4-Fluorophenyl)-1-N-[4-[7-(1-methyl-2-oxopyridin-4-yl)quinolin-4-yl]oxyphenyl]cyclopropane-1,1-dicarboxamide] |  | 10 to 100 | 
O=C(Nc1ccc(F)cc1)C1(C(=O)Nc2cc(F)c(Oc3ccnc4cc(-c5cnn(C(F)F)c5)ccc34)cc2F)CC1 [Compound 118, 1-N′-[4-[7-[1-(Difluoromethyl)pyrazol-4-yl]quinolin-4-yl]oxy-2,5-difluorophenyl]-1-N-(4-fluorophenyl)cyclopropane-1,1-dicarboxamide] |  | 10 to 100 | 
Cn1cc(-c2ccc3c(Oc4ccc(NC(=O)C5(C(=O)Nc6ccc(F)cc6)CC5)cc4)ccnc3c2)ccc1=O [Compound 119, 1-N′-(4-Fluorophenyl)-1-N-[4-[7-(1-methyl-6-oxopyridin-3-yl)quinolin-4-yl]oxyphenyl]cyclopropane-1,1-dicarboxamide] |  | 10 to 100 | 
Cc1cc2c(Oc3ccc(NC(=O)C4(C(=O)Nc5ccc(F)cc5)CC4)cc3)ccnc2cc1-c1ncc[nH]1 [Compound 120, 1-N′-(4-Fluorophenyl)-1-N-[4-[7-(1H-imidazol-2-yl)-6-methylquinolin-4-yl]oxyphenyl]cyclopropane-1,1-dicarboxamide] |  | 10 to 100 | 
Cc1cc2c(Oc3cc(F)c(NC(=O)C4(C(=O)Nc5ccc(F)cc5)CC4)cc3F)ccnc2cc1-c1ncc[nH]1 [Compound 121, 1-N′-[2,5-Difluoro-4-[7-(1H-imidazol-2-yl)-6-methylquinolin-4-yl]oxyphenyl]-1-N-(4-fluorophenyl)cyclopropane-1,1-dicarboxamide] |  | 10 to 100 | 
Cc1cc2c(Oc3ccc(NC(=O)C4(C(=O)Nc5ccc(F)cc5)CC4)cc3F)ccnc2cc1-c1ncc[nH]1 [Compound 122, 1-N′-[3-Fluoro-4-[7-(1H-imidazol-2-yl)-6-methylquinolin-4-yl]oxyphenyl]-1-N-(4-fluorophenyl)cyclopropane-1,1-dicarboxamide] |  | 10 to 100 | 
O=C(Nc1ccc(F)cc1)C1(C(=O)Nc2ccc(Oc3ccnc4cc(-c5cnn(C(F)F)c5)ccc34)c(F)c2)CC1 [Compound 123, 1-N′-[4-[7-[1-(Difluoromethyl)pyrazol-4-yl]quinolin-4-yl]oxy-3-fluorophenyl]-1-N-(4-fluorophenyl)cyclopropane-1,1-dicarboxamide] |  | 10 to 100 | 
O=C(Nc1ccc(F)cc1)C1(C(=O)Nc2ccc(Oc3ccnc4cc(-c5cc6n(n5)CCC6)ccc34)cc2)CC1 [Compound 124, 1-N-[4-[7-(5,6-Dihydro-4H-pyrrolo[1,2-b]pyrazol-2-yl)quinolin-4-yl]oxyphenyl]-1-N′-(4-fluorophenyl)cyclopropane-1,1-dicarboxamide] |  | 10 to 100 | 
